Results: patent publication US20100168102A9, “Amide Derivatives as Kinase Inhibitors” (Devgen NV, priority 2005, published 2010)

Assays:
PKC epsilon = target: T1, PKC epsilon (Homo sapiens, UniProt Q02156); experiment: Biochemical assay for PKC epsilon (fluorescence polarization, Protein Kinase C Assay Kit, Red); details: read-out: IC50 μM PKCε
T1 construct: purchased Invitrogen P2282
T1 sequence (Q02156 1-737): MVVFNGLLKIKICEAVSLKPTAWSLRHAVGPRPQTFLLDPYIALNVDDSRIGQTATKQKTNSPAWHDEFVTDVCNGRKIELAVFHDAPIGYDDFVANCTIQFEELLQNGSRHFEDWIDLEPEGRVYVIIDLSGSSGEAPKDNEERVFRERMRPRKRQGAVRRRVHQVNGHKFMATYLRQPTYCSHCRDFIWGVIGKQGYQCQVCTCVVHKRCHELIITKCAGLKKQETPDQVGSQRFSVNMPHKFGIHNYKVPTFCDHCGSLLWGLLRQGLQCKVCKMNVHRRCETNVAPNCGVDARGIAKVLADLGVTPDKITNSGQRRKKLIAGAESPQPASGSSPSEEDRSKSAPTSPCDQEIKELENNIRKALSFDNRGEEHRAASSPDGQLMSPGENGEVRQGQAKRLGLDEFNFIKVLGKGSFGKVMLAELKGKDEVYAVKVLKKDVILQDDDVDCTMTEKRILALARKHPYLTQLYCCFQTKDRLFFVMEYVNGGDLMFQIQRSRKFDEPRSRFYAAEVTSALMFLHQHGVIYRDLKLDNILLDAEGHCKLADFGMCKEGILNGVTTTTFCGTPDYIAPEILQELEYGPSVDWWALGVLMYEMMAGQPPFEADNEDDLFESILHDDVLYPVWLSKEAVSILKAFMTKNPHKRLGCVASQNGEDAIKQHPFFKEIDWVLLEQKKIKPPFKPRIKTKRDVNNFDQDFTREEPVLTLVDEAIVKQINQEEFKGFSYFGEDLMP
How it was run: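 Read-out was fluorescence-polarization competition between phosphorylated substrate and a rhodamine PKC tracer for an anti-phosphoserine antibody, added with EDTA stop after an 80 min room-temperature kinase reaction with ATP and protein substrate (Mg2+/Ca2+ buffer). Enzyme (10 ng/ml final) was preincubated with compound for 30 min.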

human ROCKα/ROCKII mix = target: T2, human ROCKα/ROCKII mix (Homo sapiens, UniProt O75116); experiment: Biochemical assay for ROCK (fluorescence polarization, ROCK IMAP Kit)
T2 construct: purchased Upstate Biotechnology 14-451
T2 sequence (O75116 11-552 limits assumed): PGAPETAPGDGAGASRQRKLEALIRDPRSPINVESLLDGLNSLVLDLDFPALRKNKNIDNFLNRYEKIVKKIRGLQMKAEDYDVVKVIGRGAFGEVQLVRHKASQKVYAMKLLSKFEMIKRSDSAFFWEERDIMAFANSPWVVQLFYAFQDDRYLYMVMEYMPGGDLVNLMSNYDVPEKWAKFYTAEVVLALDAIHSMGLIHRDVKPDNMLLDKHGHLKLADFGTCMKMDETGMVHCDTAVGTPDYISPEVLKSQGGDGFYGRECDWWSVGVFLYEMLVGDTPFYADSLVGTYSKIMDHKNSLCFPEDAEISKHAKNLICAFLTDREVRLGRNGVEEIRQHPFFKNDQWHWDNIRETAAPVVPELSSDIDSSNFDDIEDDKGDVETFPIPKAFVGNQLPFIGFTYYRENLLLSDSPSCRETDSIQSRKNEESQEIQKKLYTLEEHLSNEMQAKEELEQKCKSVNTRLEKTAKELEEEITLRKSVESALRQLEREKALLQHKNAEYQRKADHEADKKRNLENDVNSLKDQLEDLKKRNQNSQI

IC50 (PKC epsilon)	IC50 (human ROCKα/ROCKII mix)	Structure (SMILES)
0.5 to 5 µM	0.5 to 5 µM	NC(c1ccc(C(=O)Nc2ccncc2)cc1)C1CCCN1C(=O)C1(c2ccc(F)cc2)CCC1 (stereo not drawn) [Compound 575, 4-(Amino-{1-[1-(4-fluoro-phenyl)-cyclobutanecarbonyl]-pyrrolidin-2-yl}-methyl)-N-pyridin-4-yl-benzamide]
0.5 to 5 µM	0.5 to 5 µM	NC(c1ccc(C(=O)Nc2ccncc2)cc1)C1CCCN1C(=O)C1(c2ccc(F)cc2)CCCC1 (stereo not drawn) [Compound 576, 4-(Amino-{1-[1-(4-fluoro-phenyl)-cyclopentanecarbonyl]-pyrrolidin-2-yl}-methyl)-N-pyridin-4-yl-benzamide]
0.5 to 5 µM	0.5 to 5 µM	NC(c1ccc(C(=O)Nc2ccncc2)cc1)C1CCCN1C(=O)Cc1cccc(F)c1F (stereo not drawn) [Compound 578, 4-(Amino-{1-[2-(2,3-difluoro-phenyl)-acetyl]-pyrrolidin-2-yl}-methyl)-N-pyridin-4-yl-benzamide]
5 to 50 µM	0.5 to 5 µM	NC(c1ccc(C(=O)Nc2ccncc2)cc1)C1CCCN1C(=O)Cc1cc(F)ccc1F (stereo not drawn) [Compound 579, 4-(Amino-{1-[2-(2,5-difluoro-phenyl)-acetyl]-pyrrolidin-2-yl}-methyl)-N-pyridin-4-yl-benzamide]
0.5 to 5 µM	0.05 to 0.5 µM	NC(c1ccc(C(=O)Nc2ccncc2)cc1)C1CCCN1C(=O)Cc1ccc(F)cc1F (stereo not drawn) [Compound 580, 4-(Amino-{1-[2-(2,4-difluoro-phenyl)-acetyl]-pyrrolidin-2-yl}-methyl)-N-pyridin-4-yl-benzamide]
0.5 to 5 µM	0.5 to 5 µM	NC(c1ccc(C(=O)Nc2ccncc2)cc1)C1CCCN1C(=O)C1(c2ccc(F)cc2F)CC1 (stereo not drawn) [Compound 582, 4-(Amino-{1-[1-(2,4-difluoro-phenyl)-cyclopropanecarbonyl]-pyrrolidin-2-yl}-methyl)-N-pyridin-4-yl-benzamide]
5 to 50 µM	0.5 to 5 µM	NC(c1ccc(C(=O)Nc2ccncc2)cc1)C1CCCN1C(=O)Cc1cc(F)cc(F)c1 (stereo not drawn) [Compound 583, 4-(Amino-{1-[2-(3,5-difluoro-phenyl)-acetyl]-pyrrolidin-2-yl}-methyl)-N-pyridin-4-yl-benzamide]
5 to 50 µM	0.5 to 5 µM	NC(c1ccc(C(=O)Nc2ccncc2)cc1)C1CCCN1C(=O)Cc1c(F)cccc1F (stereo not drawn) [Compound 584, 4-(Amino-{1-[2-(2,6-difluoro-phenyl)-acetyl]-pyrrolidin-2-yl}-methyl)-N-pyridin-4-yl-benzamide]
0.5 to 5 µM	0.5 to 5 µM	NC(c1ccc(C(=O)Nc2ccncc2)cc1)C1CCCN1C(=O)C1(c2ccc(F)c(F)c2)CC1 (stereo not drawn) [Compound 587, 4-(Amino-{1-[1-(3,4-difluoro-phenyl)-cyclopropanecarbonyl]-pyrrolidin-2-yl}-methyl)-N-pyridin-4-yl-benzamide]
0.5 to 5 µM	0.5 to 5 µM	NC(c1ccc(C(=O)Nc2ccncc2)cc1)C1CCCN1C(=O)C1(c2ccc(F)c(F)c2)CCC1 (stereo not drawn) [Compound 588, 4-(Amino-{1-[1-(3,4-difluoro-phenyl)-cyclobutanecarbonyl]-pyrrolidin-2-yl}-methyl)-N-pyridin-4-yl-benzamide]
0.5 to 5 µM	0.5 to 5 µM	NC(c1ccc(C(=O)Nc2ccncc2)cc1)C1CCCN1C(=O)C1(c2ccc(F)c(F)c2)CCCC1 (stereo not drawn) [Compound 589, 4-(Amino-{1-[1-(3,4-difluoro-phenyl)-cyclopentanecarbonyl]-pyrrolidin-2-yl}-methyl)-N-pyridin-4-yl-benzamide]
5 to 50 µM	0.5 to 5 µM	NC(c1ccc(C(=O)Nc2ccncc2)cc1)C1CCCN1C(=O)Cc1c(Cl)cccc1Cl (stereo not drawn) [Compound 590, 4-(Amino-{1-[2-(2,6-dichloro-phenyl)-acetyl]-pyrrolidin-2-yl}-methyl)-N-pyridin-4-yl-benzamide]
5 to 50 µM	0.5 to 5 µM	NC(c1ccc(C(=O)Nc2ccncc2)cc1)C1CCCN1C(=O)Cc1ccc(Cl)cc1Cl (stereo not drawn) [Compound 591, 4-(Amino-{1-[2-(2,4-dichloro-phenyl)-acetyl]-pyrrolidin-2-yl}-methyl)-N-pyridin-4-yl-benzamide]
0.5 to 5 µM	0.5 to 5 µM	NC(c1ccc(C(=O)Nc2ccncc2)cc1)C1CCCN1C(=O)Cc1ccc(Cl)c(Cl)c1 (stereo not drawn) [Compound 592, 4-(Amino-{1-[2-(3,4-dichloro-phenyl)-acetyl]-pyrrolidin-2-yl}-methyl)-N-pyridin-4-yl-benzamide]
5 to 50 µM	0.5 to 5 µM	CC(C)(C(=O)N1CCCC1C(N)c1ccc(C(=O)Nc2ccncc2)cc1)c1ccc(Cl)c(Cl)c1 (stereo not drawn) [Compound 593, 4-(Amino-{1-[2-(3,4-dichloro-phenyl)-2-methyl-propionyl]-pyrrolidin-2-yl}-methyl)-N-pyridin-4-yl-benzamide]
0.5 to 5 µM	0.5 to 5 µM	NC(c1ccc(C(=O)Nc2ccncc2)cc1)C1CCCN1C(=O)C1(c2ccc(Cl)c(Cl)c2)CC1 (stereo not drawn) [Compound 594, 4-(Amino-{1-[1-(3,4-dichloro-phenyl)-cyclopropanecarbonyl]-pyrrolidin-2-yl}-methyl)-N-pyridin-4-yl-benzamide]
0.5 to 5 µM	0.5 to 5 µM	NC(c1ccc(C(=O)Nc2ccncc2)cc1)C1CCCN1C(=O)C1(c2ccc(Cl)c(Cl)c2)CCC1 (stereo not drawn) [Compound 595, 4-(Amino-{1-[1-(3,4-dichloro-phenyl)-cyclobutanecarbonyl]-pyrrolidin-2-yl}-methyl)-N-pyridin-4-yl-benzamide]
5 to 50 µM	0.5 to 5 µM	NC(c1ccc(C(=O)Nc2ccncc2)cc1)C1CCCN1C(=O)C1(c2ccc(Cl)cc2Cl)CC1 (stereo not drawn) [Compound 596, 4-(Amino-{1-[1-(2,4-dichloro-phenyl)-cyclopropanecarbonyl]-pyrrolidin-2-yl}-methyl)-N-pyridin-4-yl-benzamide]
5 to 50 µM	0.5 to 5 µM	NC(c1ccc(C(=O)Nc2ccncc2)cc1)C1CCCN1C(=O)Cc1c(F)cccc1Cl (stereo not drawn) [Compound 597, 4-(Amino-{1-[2-(2-chloro-6-fluoro-phenyl)-acetyl]-pyrrolidin-2-yl}-methyl)-N-pyridin-4-yl-benzamide]
5 to 50 µM	0.5 to 5 µM	NC(c1ccc(C(=O)Nc2ccncc2)cc1)C1CCCN1C(=O)Cc1ccc(Cl)cc1F (stereo not drawn) [Compound 598, 4-(Amino-{1-[2-(4-chloro-2-fluoro-phenyl)-acetyl]-pyrrolidin-2-yl}-methyl)-N-pyridin-4-yl-benzamide]
0.5 to 5 µM	0.5 to 5 µM	NC(c1ccc(C(=O)Nc2ccncc2)cc1)C1CCCN1C(=O)Cc1ccc(F)cc1Cl (stereo not drawn) [Compound 599, 4-(Amino-{1-[2-(2-chloro-4-fluoro-phenyl)-acetyl]-pyrrolidin-2-yl}-methyl)-N-pyridin-4-yl-benzamide]
0.5 to 5 µM	0.5 to 5 µM	NC(c1ccc(C(=O)Nc2ccncc2)cc1)C1CCCN1C(=O)C1(c2ccc(F)cc2Cl)CC1 (stereo not drawn) [Compound 600, 4-(Amino-{1-[1-(2-chloro-4-fluoro-phenyl)-cyclopropanecarbonyl]-pyrrolidin-2-yl}-methyl)-N-pyridin-4-yl-benzamide]
5 to 50 µM	0.5 to 5 µM	NC(c1ccc(C(=O)Nc2ccncc2)cc1)C1CCCN1C(=O)Cc1cccc(Cl)c1F (stereo not drawn) [Compound 602, 4-(Amino-{1-[2-(3-chloro-2-fluoro-phenyl)-acetyl]-pyrrolidin-2-yl}-methyl)-N-pyridin-4-yl-benzamide]
0.5 to 5 µM	0.05 to 0.5 µM	NC(c1ccc(C(=O)Nc2ccncc2)cc1)C1CCCN1C(=O)Cc1ccc(F)c(Cl)c1 (stereo not drawn) [Compound 603, 4-(Amino-{1-[2-(3-chloro-4-fluoro-phenyl)-acetyl]-pyrrolidin-2-yl}-methyl)-N-pyridin-4-yl-benzamide]
0.5 to 5 µM	0.5 to 5 µM	NC(c1ccc(C(=O)Nc2ccncc2)cc1)C1CCCN1C(=O)C1(c2ccc(Cl)cc2F)CC1 (stereo not drawn) [Compound 605, 4-(Amino-{1-[1-(4-chloro-2-fluoro-phenyl)-cyclopropanecarbonyl]-pyrrolidin-2-yl}-methyl)-N-pyridin-4-yl-benzamide]
0.5 to 5 µM	0.5 to 5 µM	CC(C)(C(=O)N1CCCC1C(N)c1ccc(C(=O)Nc2ccncc2)cc1)c1ccc(F)c(Cl)c1 (stereo not drawn) [Compound 606, 4-(Amino-{1-[2-(3-chloro-4-fluoro-phenyl)-2-methyl-propionyl]-pyrrolidin-2-yl}-methyl)-N-pyridin-4-yl-benzamide]
0.5 to 5 µM	0.5 to 5 µM	NC(c1ccc(C(=O)Nc2ccncc2)cc1)C1CCCN1C(=O)C1(c2ccc(F)c(Cl)c2)CC1 (stereo not drawn) [Compound 607, 4-(Amino-{1-[1-(3-chloro-4-fluoro-phenyl)-cyclopropanecarbonyl]-pyrrolidin-2-yl}-methyl)-N-pyridin-4-yl-benzamide]
